Molecules are shown by their SMILES. Numbers after ± are expanded uncertainties.

Assay in one data set: not given
As to conditions: Crystal; DTA.
Consider `CCCCCCCCCC[N+](C)(C)CCCCCCCCCC.O=[N+]([O-])[O-]` [Didecyldimethylammonium nitrate], for which the Normal melting temperature came to 31.7 ± 4 °C.

The same data set, now with this note: Crystal; visual observation.
For the compound `CCCCO` [butan-1-ol], the Normal melting temperature is -89.4 ± 4 °C.

As for `CCCCCCCCCCO` [decan-1-ol], the Normal melting temperature was determined as 5.1 ± 4 °C.

As for `CCCCCCCCCCCCCCCC` [hexadecane], the Normal melting temperature worked out at 18.0 ± 4 °C.

Turning to `CCCCCC` [hexane], the Normal melting temperature is -94.3 ± 4 °C.

Take `CCCCCCCCO` [octan-1-ol]: the Normal melting temperature was -14.9 ± 4 °C.

As for `CCCO` [propan-1-ol], the Normal melting temperature was -126.4 ± 4 °C.

In the case of `CCCc1ccccc1` [propylbenzene], the Normal melting temperature is -99.0 ± 4 °C.

As for `Cc1ccccc1` [toluene], the Normal melting temperature is -95.0 ± 4 °C.

The next data set is described as follows: Molar enthalpy of transition or fusion. As to conditions: Crystal; DSC.
For `CCCCCCCCCC[N+](C)(C)CCCCCCCCCC.O=[N+]([O-])[O-]` [Didecyldimethylammonium nitrate], the “Molar enthalpy of transition or fusion” value was determined as 2.36 ± 0.086 kcal/mol.
